The source of these data is patent US4469786A (priority 1981, dated 1984).

Series [1] deals with single-stranded .phi.105 DNA.
For series [2], the system named is DNA. Particulars: cited from earlier work.
Series [3] relates to Salmonella tester strains. Particulars: literature (McCann, Bartsch, Glatt); cited from earlier work.
Series [4] concerns replicative-form .phi.105DII:6C DNA. Briefly: gene linkage disruption in the marker rescue assay with .phi.105DII:6C DNA. Particulars: PO, same conditions as Example 5 (25 to 100 mM).
For series [5], the system named is DNA. Particulars: transformation-based assay of Phillips et al.; cited from earlier work.

Each structure is given as a SMILES string.

Turning to `NO` [HA, hydroxylamine], in series [1], the marker rescue activity result is recorded as “loss of marker rescue activity”. Further, the “frequency of clear PFU/total PFU (capacity of treated DNA to generate clear-plaque mutants)” value in series [1] (1M HA, single-stranded DNA, 45° C., 0-60 minutes, GB68, FIG. 2) is listed as “A time dependent increase in the capacity of the treated DNA to generate clear-plaque mutants”. Also, in series [2], the “lesion in DNA / reactivity with DNA” value is “induces predominantly guanine-cytosine to adenine-thymine transitions”.

On to `ClC(Cl)(Cl)Cl` [CCl4], for which the “mutagenicity in the Ames assay” value in series [3] is on record as “not mutagenic in the Ames assay”.

Consider `CC(=O)ON(C(C)=O)c1ccc2c(c1)Cc1ccccc1-2` [AAAF, N-acetyl-N-acetoxy-2-aminofluorine], for which, in series [1], the “frequency of clear PFU, earliest sample” value is recorded as “there appeared to be an increase in the frequency of clear PFU”; the “marker rescue activity, subsequent samples” value is “very rapid and extensive loss of marker rescue activity”. Besides, the “numbers of clear-plaque mutants generated” value in series [1] (35 mM AAAF, 37° C., 1-9 min., Hcr^+ recipient GB68, FIG. 6) is “increased with length of AAAF treatment”. The “frequency of clear-plaque mutants, subsequent samples” value in series [1] (35 mM AAAF, 37° C., subsequent samples, Hcr^- recipient GB7075) is reported as “concomitant decrease in the frequency of clear-plaque mutants”. Moreover, the “lesion in DNA / reactivity with DNA” value in series [2] is “potent frameshift mutagen which forms two different guanine adducts”.

Turning to `O=CCCl` [CAA, chloroacetaldehyde], the “lesion in DNA / reactivity with DNA” value in series [2] is “reacts with adenines and cytosines to form imidazonucleoside derivatives”.

Turning to `ClC(Cl)=C(c1ccc(Cl)cc1)c1ccc(Cl)cc1` [DDE], in series [3], the “mutagenicity in the Ames assay” value is recorded as “not mutagenic in the Ames assay”.

Take `CC1CO1` (centres unmarked) [PO, propylene oxide]: in series [1], the “frequency of clear PFU at the highest concentration” value is “a decrease in the frequency of clear PFU”, the marker rescue activity entry is “No consistent decrease in marker rescue activity” and the “significance (p) of increase in frequency of clear PFU” value is on record as less than 0.001. The “disruption of linkage between J^+ allele and DII:6C mutation” value in series [4] is recorded as “no significant disruption of linkage”. Moreover, the “lesion in DNA / reactivity with DNA” value in series [2] was “reacts with guanine and adenine residues but has also been claimed to react with the phosphodiester backbone of DNA producing strand scissions”. Besides, the strand scission result in series [5] is on record as “PO-induced strand scission which was observed”.

On to `CC/C(=C(/CC)c1ccc(O)cc1)c1ccc(O)cc1` [diethylstilbestrol], for which, in series [3], the “mutagenicity in the Ames assay” value is listed as “not mutagenic in the Ames assay”.

Turning to `ClC1=C(Cl)[C@]2(Cl)[C@@H]3[C@@H]4C[C@@H]([C@H]5O[C@@H]45)[C@@H]3[C@@]1(Cl)C2(Cl)Cl` [dieldrin], the “mutagenicity in the Ames assay” value in series [3] is reported as “not mutagenic in the Ames assay”.

As to `ClC(Cl)Cl` [CHCl3], the “mutagenicity in the Ames assay” value in series [3] is recorded as “not mutagenic in the Ames assay”.
